{"source": "paper PMC5218480", "about": "(PLoS ONE, 2017)", "system": "MV-4-11 cells", "assay": "Gene expression microarray analysis (Affymetrix PrimeView) and GSEA", "type": "cell-based, human", "design": "RFU PODN (11730768_x_at) / Fold change /veh PODN (11730768_x_at) / RFU LINC00158 (11744669_a_at) / Fold change /veh LINC00158 (11744669_a_at) / RFU DUSP10 (11751237_a_at) / Fold change /veh DUSP10 (11751237_a_at) / RFU ID3 (11757404_x_at) / Fold change /veh ID3 (11757404_x_at) / RFU PLEKHG5 (11737974_s_at) / Fold change /veh PLEKHG5 (11737974_s_at) / RFU LRRC4B (11730491_at) / Fold change /veh LRRC4B (11730491_at) / RFU GIMAP4 (11747438_a_at) / Fold change /veh GIMAP4 (11747438_a_at) / RFU KRT8 (11758183_x_at) / Fold change /veh KRT8 (11758183_x_at) / RFU CNN1 (11734310_a_at) / Fold change /veh CNN1 (11734310_a_at) / RFU VPS37D (11726825_at) / Fold change /veh VPS37D (11726825_at) / RFU C10orf10 (11716522_x_at) / Fold change /veh C10orf10 (11716522_x_at) / RFU KIR2DL2 /// KIR2DL4 /// KIR2DL5A /// KIR2DL5B /// KIR2DS1 /// KIR2DS2 /// KIR2DS3 /// KIR2DS4 /// KIR3DL3 /// KIR3DL3 /// KIR3DS1 (11738374_at) / Fold change /veh KIR2DL2 /// KIR2DL4 /// KIR2DL5A /// KIR2DL5B /// KIR2DS1 /// KIR2DS2 /// KIR2DS3 /// KIR2DS4 /// KIR3DL3 /// KIR3DL3 /// KIR3DS1 (11738374_at) / RFU C1QL1 (11718748_at) / Fold change /veh C1QL1 (11718748_at) / RFU TMPRSS4 (11747572_a_at) / Fold change /veh TMPRSS4 (11747572_a_at) / RFU HAMP (11756126_x_at) / Fold change /veh HAMP (11756126_x_at) / RFU RNFT2 (11725882_a_at) / Fold change /veh RNFT2 (11725882_a_at) / RFU NR4A2 (11747474_a_at) / Fold change /veh NR4A2 (11747474_a_at) / RFU ABCC12 (11746883_a_at) / Fold change /veh ABCC12 (11746883_a_at) / RFU TMEM136 (11760407_x_at) / Fold change /veh TMEM136 (11760407_x_at) / RFU CLDN22 /// WWC2 (11732394_at) / Fold change /veh CLDN22 /// WWC2 (11732394_at) / RFU HLA-DPB1 (11760878_x_at) / Fold change /veh HLA-DPB1 (11760878_x_at) / RFU SPINT1 (11716480_a_at) / Fold change /veh SPINT1 (11716480_a_at) / RFU GAP43 (11754022_s_at) / Fold change /veh GAP43 (11754022_s_at) / RFU A4GNT (11735810_at) / Fold change /veh A4GNT (11735810_at) / RFU PRB3 (11715151_x_at) / Fold change /veh PRB3 (11715151_x_at) / RFU TUBB4B (11761932_at) / Fold change /veh TUBB4B (11761932_at) / RFU CAPN14 (11732068_a_at) / Fold change /veh CAPN14 (11732068_a_at) / RFU TMCC2 (11721928_a_at) / Fold change /veh TMCC2 (11721928_a_at) / RFU IRGQ (11745062_a_at) / Fold change /veh IRGQ (11745062_a_at) / RFU FAM174B (11720279_a_at) / Fold change /veh FAM174B (11720279_a_at) / RFU TMPRSS4 (11748680_a_at) / Fold change /veh TMPRSS4 (11748680_a_at) / RFU FAM212B (11763350_a_at) / Fold change /veh FAM212B (11763350_a_at) / RFU PLEKHG5 (11743358_a_at) / Fold change /veh PLEKHG5 (11743358_a_at) / RFU ZSCAN30 (11745921_a_at) / Fold change /veh ZSCAN30 (11745921_a_at) / RFU CMKLR1 (11741424_a_at) / Fold change /veh CMKLR1 (11741424_a_at) / RFU LOC101060620 /// MAPK8IP1 (11723275_at) / Fold change /veh LOC101060620 /// MAPK8IP1 (11723275_at) / RFU SPTSSB (11747773_x_at) / Fold change /veh SPTSSB (11747773_x_at) / RFU PRSS12 (11739890_at) / Fold change /veh PRSS12 (11739890_at) / RFU BIN1 (11741810_x_at) / Fold change /veh BIN1 (11741810_x_at) / RFU WNT11 (11732464_a_at) / Fold change /veh WNT11 (11732464_a_at) / RFU C10orf10 (11716521_a_at) / Fold change /veh C10orf10 (11716521_a_at) / RFU C5orf56 (11738089_at) / Fold change /veh C5orf56 (11738089_at) / RFU CYB561 (11721691_x_at) / Fold change /veh CYB561 (11721691_x_at) / RFU ANKRD19P (11752326_a_at) / Fold change /veh ANKRD19P (11752326_a_at) / RFU OR2T12 /// OR2T33 /// OR2T8 (11738714_s_at) / Fold change /veh OR2T12 /// OR2T33 /// OR2T8 (11738714_s_at) / RFU VCAN (11748164_a_at) / Fold change /veh VCAN (11748164_a_at) / RFU JSRP1 (11732532_at) / Fold change /veh JSRP1 (11732532_at) / RFU KRTAP10-11 (11738290_x_at) / Fold change /veh KRTAP10-11 (11738290_x_at) / RFU MYO3A (11730013_a_at) / Fold change /veh MYO3A (11730013_a_at) / RFU EBF3 (11725865_a_at) / Fold change /veh EBF3 (11725865_a_at) / RFU CAMK2N1 (11719241_x_at) / Fold change /veh CAMK2N1 (11719241_x_at) / RFU C5orf56 (11738088_a_at) / Fold change /veh C5orf56 (11738088_a_at) / RFU OLFML3 (11715873_a_at) / Fold change /veh OLFML3 (11715873_a_at) / RFU LOC100653217 /// NTM (11731650_a_at) / Fold change /veh LOC100653217 /// NTM (11731650_a_at) / RFU MAPK11 (11762145_a_at) / Fold change /veh MAPK11 (11762145_a_at) / RFU FIZ1 (11724087_x_at) / Fold change /veh FIZ1 (11724087_x_at) / RFU OASL (11726364_x_at) / Fold change /veh OASL (11726364_x_at) / RFU SOX15 (11748057_x_at) / Fold change /veh SOX15 (11748057_x_at) / RFU CD79A (11719716_a_at) / Fold change /veh CD79A (11719716_a_at) / RFU HIST1H1D (11736915_at) / Fold change /veh HIST1H1D (11736915_at) / RFU CASKIN2 (11723855_a_at) / Fold change /veh CASKIN2 (11723855_a_at) / RFU LOC730098 (11760151_x_at) / Fold change /veh LOC730098 (11760151_x_at) / RFU OR4N2 (11742367_at) / Fold change /veh OR4N2 (11742367_at) / RFU PRRT2 (11749266_a_at) / Fold change /veh PRRT2 (11749266_a_at) / RFU SNX32 (11753110_a_at) / Fold change /veh SNX32 (11753110_a_at) / RFU CDHR5 (11726645_a_at) / Fold change /veh CDHR5 (11726645_a_at) / RFU RCAN1 (11760418_a_at) / Fold change /veh RCAN1 (11760418_a_at) / RFU FAM167A (11723789_a_at) / Fold change /veh FAM167A (11723789_a_at) / RFU FAM26E (11764081_at) / Fold change /veh FAM26E (11764081_at) / RFU ISYNA1 (11749810_s_at) / Fold change /veh ISYNA1 (11749810_s_at) / RFU ACY1 (11761880_at) / Fold change /veh ACY1 (11761880_at) / RFU 11764098_at / Fold change /veh 11764098_at / RFU SAMD14 (11745864_x_at) / Fold change /veh SAMD14 (11745864_x_at) / RFU NPB (11741838_a_at) / Fold change /veh NPB (11741838_a_at) / RFU TMPRSS6 (11731388_a_at) / Fold change /veh TMPRSS6 (11731388_a_at) / RFU KRTAP10-2 (11738614_at) / Fold change /veh KRTAP10-2 (11738614_at) / RFU ARHGAP8 /// PRR5-ARHGAP8 (11727945_x_at) / Fold change /veh ARHGAP8 /// PRR5-ARHGAP8 (11727945_x_at) / RFU KRTAP5-7 /// NADSYN1 (11734609_at) / Fold change /veh KRTAP5-7 /// NADSYN1 (11734609_at) / RFU RASL12 (11751679_a_at) / Fold change /veh RASL12 (11751679_a_at) / RFU CDKN2B (11736163_a_at) / Fold change /veh CDKN2B (11736163_a_at) / RFU PRF1 (11729649_at) / Fold change /veh PRF1 (11729649_at) / RFU, ZNF638 /// ZNF638-IT1 / Fold change vs veh, ZNF638 /// ZNF638-IT1 / RFU, PANK3 / Fold change vs veh, PANK3 / RFU, SH3YL1 / Fold change vs veh, SH3YL1 / RFU, ZEB2 / Fold change vs veh, ZEB2 / RFU, NRIP1 / Fold change vs veh, NRIP1 / RFU, PTTG1IP / Fold change vs veh, PTTG1IP / RFU, CAPN2 / Fold change vs veh, CAPN2 / RFU, MED14 / Fold change vs veh, MED14 / RFU, SNORA58 / Fold change vs veh, SNORA58 / RFU, C1orf63 / Fold change vs veh, C1orf63 / RFU, LRRFIP1 / Fold change vs veh, LRRFIP1 / RFU, NDUFAF7 / Fold change vs veh, NDUFAF7 / RFU, SLC12A2 / Fold change vs veh, SLC12A2 / RFU, IBTK / Fold change vs veh, IBTK / RFU, ESF1 / Fold change vs veh, ESF1 / Fold change vs veh, TMEM50B / RFU, TAOK1 / Fold change vs veh, TAOK1 / RFU, ACBD3 / Fold change vs veh, ACBD3 / RFU, TMA16 / Fold change vs veh, TMA16 / RFU, RWDD3 / Fold change vs veh, RWDD3 / RFU, BCAT1 / Fold change vs veh, BCAT1 / RFU, EDEM3 / Fold change vs veh, EDEM3 / RFU, TMEM33 / Fold change vs veh, TMEM33 / RFU, WDR75 / Fold change vs veh, WDR75 / RFU, AHCTF1 / Fold change vs veh, AHCTF1 / RFU, TFRC / Fold change vs veh, TFRC / RFU, ZDHHC17 / Fold change vs veh, ZDHHC17 / RFU, NOM1 / Fold change vs veh, NOM1 / RFU, ARL8B / Fold change vs veh, ARL8B / RFU, ZBTB11 / Fold change vs veh, ZBTB11 / RFU, TAMM41 / Fold change vs veh, TAMM41 / RFU, KIAA1704 /// LOC100996395 / Fold change vs veh, KIAA1704 /// LOC100996395 / RFU, ING1 / Fold change vs veh, ING1 / RFU, TRMT61B / Fold change vs veh, TRMT61B / RFU, FUBP3 / Fold change vs veh, FUBP3 / RFU, TP53 / Fold change vs veh, TP53 / RFU, TNKS2 / Fold change vs veh, TNKS2 / RFU, ZFP14 / Fold change vs veh, ZFP14 / RFU, ACTR2 / Fold change vs veh, ACTR2 / RFU, PPP3R1 / Fold change vs veh, PPP3R1 / RFU, PIK3R1 / Fold change vs veh, PIK3R1 / RFU, HNRNPA1 / Fold change vs veh, HNRNPA1 / RFU, RNF170 / Fold change vs veh, RNF170 / RFU, ZNF28 / Fold change vs veh, ZNF28 / RFU, RNGTT / Fold change vs veh, RNGTT / RFU, OGT / Fold change vs veh, OGT / RFU, BRD1 / Fold change vs veh, BRD1 / RFU, MARS / Fold change vs veh, MARS / RFU, ZNF655 / Fold change vs veh, ZNF655 / RFU, FAHD1 / Fold change vs veh, FAHD1 / RFU, BDP1 / Fold change vs veh, BDP1 / RFU, LRRCC1 / Fold change vs veh, LRRCC1 / RFU, ARID1A / Fold change vs veh, ARID1A / RFU, ZNF146 / Fold change vs veh, ZNF146 / RFU, ZNF330 / Fold change vs veh, ZNF330 / RFU, GPN3 / Fold change vs veh, GPN3 / RFU, C9orf123 / Fold change vs veh, C9orf123 / RFU, N4BP2L2 / Fold change vs veh, N4BP2L2 / RFU, ARFIP1 / Fold change vs veh, ARFIP1 / RFU, FAM179B / Fold change vs veh, FAM179B / RFU, BCL10 / Fold change vs veh, BCL10 / RFU, UHRF1BP1L / Fold change vs veh, UHRF1BP1L / RFU, BET1 / Fold change vs veh, BET1 / RFU, CNOT2 / Fold change vs veh, CNOT2 / RFU, ZNF268 / Fold change vs veh, ZNF268 / Fold change vs veh, ZNF507 / RFU, DGCR2 / Fold change vs veh, DGCR2 / RFU, WDSUB1 / Fold change vs veh, WDSUB1 / Fold change vs veh, HSP90B1 /// MIR3652 / RFU, ADSS / Fold change vs veh, ADSS / RFU, GK / Fold change vs veh, GK / RFU, ZNF148 / Fold change vs veh, ZNF148 / RFU, TAF9 / Fold change vs veh, TAF9 / RFU, SLC1A5 / Fold change vs veh, SLC1A5 / RFU, SLMO2 / Fold change vs veh, SLMO2 / RFU, ABCC4 / Fold change vs veh, ABCC4 / RFU, LOC101060439 /// RAP1B / Fold change vs veh, LOC101060439 /// RAP1B / RFU, RFX7 / Fold change vs veh, RFX7 / RFU, GTPBP10 / Fold change vs veh, GTPBP10 / RFU, CNEP1R1 / Fold change vs veh, CNEP1R1 / RFU, BIVM-ERCC5 /// ERCC5 / Fold change vs veh, BIVM-ERCC5 /// ERCC5 / RFU, ILF3 / Fold change vs veh, ILF3 / RFU 11762660_at / Fold change /veh 11762660_at / RFU VCAN (11757783_s_at) / Fold change /veh VCAN (11757783_s_at) / RFU DDX43 (11728927_at) / Fold change /veh DDX43 (11728927_at) / RFU KRT8 (11758188_x_at) / Fold change /veh KRT8 (11758188_x_at) / RFU NKD1 (11759106_at) / Fold change /veh NKD1 (11759106_at) / RFU SRD5A1 (11742802_a_at) / Fold change /veh SRD5A1 (11742802_a_at) / RFU TPSAB1 /// TPSB2 (11721975_s_at) / Fold change /veh TPSAB1 /// TPSB2 (11721975_s_at) / RFU GSTM3 (11746129_a_at) / Fold change /veh GSTM3 (11746129_a_at) / RFU IL23R (11737362_x_at) / Fold change /veh IL23R (11737362_x_at) / RFU TMEM51 (11727254_a_at) / Fold change /veh TMEM51 (11727254_a_at) / RFU PIWIL2 (11732686_x_at) / Fold change /veh PIWIL2 (11732686_x_at) / RFU ORM1 (11744905_x_at) / Fold change /veh ORM1 (11744905_x_at) / RFU CCDC152 (11743942_at) / Fold change /veh CCDC152 (11743942_at) / RFU ECM1 (11717891_a_at) / Fold change /veh ECM1 (11717891_a_at) / RFU IL23R (11748794_a_at) / Fold change /veh IL23R (11748794_a_at) / RFU TNFAIP8L3 (11732012_x_at) / Fold change /veh TNFAIP8L3 (11732012_x_at) / RFU MBOAT4 (11741988_at) / Fold change /veh MBOAT4 (11741988_at) / RFU 11764193_at / Fold change /veh 11764193_at / RFU TMEM53 (11763286_at) / Fold change /veh TMEM53 (11763286_at) / RFU MAGEB2 (11727129_at) / Fold change /veh MAGEB2 (11727129_at) / RFU TMEM200A (11744735_a_at) / Fold change /veh TMEM200A (11744735_a_at) / RFU CCDC152 (11751479_a_at) / Fold change /veh CCDC152 (11751479_a_at) / RFU FAM211A (11726209_a_at) / Fold change /veh FAM211A (11726209_a_at) / RFU RGS16 (11746705_a_at) / Fold change /veh RGS16 (11746705_a_at) / RFU VCAN (11755009_s_at) / Fold change /veh VCAN (11755009_s_at) / RFU RHOB (11743442_s_at) / Fold change /veh RHOB (11743442_s_at) / RFU RGS16 (11720943_a_at) / Fold change /veh RGS16 (11720943_a_at) / RFU RGS16 (11720944_at) / Fold change /veh RGS16 (11720944_at) / RFU, VPS4B / Fold change vs veh, VPS4B / RFU, CREB1 / Fold change vs veh, CREB1 / RFU, DNAJC13 / Fold change vs veh, DNAJC13 / RFU, GNAQ / Fold change vs veh, GNAQ / RFU, CDK5R1 / Fold change vs veh, CDK5R1 / RFU, ZRANB3 / Fold change vs veh, ZRANB3 / RFU, CUL4A / Fold change vs veh, CUL4A / RFU, CCNY / Fold change vs veh, CCNY / RFU, UFL1 / Fold change vs veh, UFL1 / RFU, COG3 / Fold change vs veh, COG3 / RFU, DIAPH2 / Fold change vs veh, DIAPH2 / RFU, SKA2 / Fold change vs veh, SKA2 / RFU, AFF3 / Fold change vs veh, AFF3 / RFU, LMF1 / Fold change vs veh, LMF1 / RFU, IPO11 / Fold change vs veh, IPO11 / RFU, DFFB / Fold change vs veh, DFFB / RFU, FOXP1 / Fold change vs veh, FOXP1 / RFU, CARD8 / Fold change vs veh, CARD8 / RFU, STRN3 / Fold change vs veh, STRN3 / RFU, ADK / Fold change vs veh, ADK / RFU, RASSF2 / Fold change vs veh, RASSF2 / RFU, WIPF1 / Fold change vs veh, WIPF1 / RFU, LARP1B / Fold change vs veh, LARP1B / RFU, RASA1 / Fold change vs veh, RASA1 / RFU, RB1 / Fold change vs veh, RB1 / RFU, PPFIA1 / Fold change vs veh, PPFIA1 / RFU, MAT2A / Fold change vs veh, MAT2A / RFU, CCT5 / Fold change vs veh, CCT5 / RFU, WDR92 / Fold change vs veh, WDR92 / RFU, CUX1 / Fold change vs veh, CUX1 / RFU, TTC7A / Fold change vs veh, TTC7A / RFU, TMEM135 / Fold change vs veh, TMEM135 / RFU, DEPTOR / Fold change vs veh, DEPTOR / RFU, CPM / Fold change vs veh, CPM / RFU, DNAJB6 / Fold change vs veh, DNAJB6 / RFU, CACNA2D3 / Fold change vs veh, CACNA2D3 / RFU, DTX4 / Fold change vs veh, DTX4 / RFU, TFCP2 / Fold change vs veh, TFCP2 / RFU, GMCL1 /// GMCL1P1 / Fold change vs veh, GMCL1 /// GMCL1P1 / RFU, AEBP2 / Fold change vs veh, AEBP2 / RFU, SNHG1 /// SNORD22 /// SNORD25 /// SNORD26 /// SNORD27 /// SNORD28 /// SNORD29 /// SNORD31 / Fold change vs veh, SNHG1 /// SNORD22 /// SNORD25 /// SNORD26 /// SNORD27 /// SNORD28 /// SNORD29 /// SNORD31 / Fold change (Aza/veh), C12orf56 (ProbeSet 11735607_a_at) / Fold change (ACY-1035/veh), C12orf56 (ProbeSet 11735607_a_at) / Fold change (Aza/veh), FGFR1OP (ProbeSet 11751329_s_at) / Fold change (ACY-1035/veh), FGFR1OP (ProbeSet 11751329_s_at) / Fold change (Aza/veh), VPS36 (ProbeSet 11739960_a_at) / Fold change (ACY-1035/veh), VPS36 (ProbeSet 11739960_a_at) / RFU SYPL1 (11715823_x_at) / Fold change /veh SYPL1 (11715823_x_at) / RFU IGFBP7 (11715501_s_at) / Fold change /veh IGFBP7 (11715501_s_at) / RFU REEP3 (11722064_at) / Fold change /veh REEP3 (11722064_at) / RFU IGLL1 (11728026_x_at) / Fold change /veh IGLL1 (11728026_x_at): dose or concentration left out as unconfirmed", "details": "ProbeSet 11717523_x_at; LIST B"}
{"smiles": "Nc1ccc(-c2cccs2)cc1NC(=O)c1ccc2c(c1)cc(C1CC1)n2CCN1CCOCC1", "note": "[ACY-1035]", "values": [{"measurement": "Fold change vs veh, TMEM50B", "result": 0.88}]}
